# Measurements published in US7449470B2, “Substituted pyrimidines as ligands of adenosine receptors” (Universiteit Leiden, priority 2003, dated 2008).
# Target: T1, human adenosine A1 receptor (Homo sapiens, UniProt P30542)
# T1 construct: expressed in transfected cells; host or cells: CHO cells
# T1 sequence (P30542 1-326): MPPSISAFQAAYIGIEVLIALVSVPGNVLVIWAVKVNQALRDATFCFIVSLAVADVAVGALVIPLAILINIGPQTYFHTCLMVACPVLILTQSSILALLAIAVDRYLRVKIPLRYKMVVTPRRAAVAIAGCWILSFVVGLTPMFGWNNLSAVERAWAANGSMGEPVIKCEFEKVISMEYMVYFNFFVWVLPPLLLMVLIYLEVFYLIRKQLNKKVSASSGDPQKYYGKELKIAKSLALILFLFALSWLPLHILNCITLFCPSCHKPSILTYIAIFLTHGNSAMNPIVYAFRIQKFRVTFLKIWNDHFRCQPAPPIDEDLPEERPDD
# Assay: Radioligand binding assay, displacement of [3H]DPCPX
# Conditions: CHO cells expressing human adenosine A1 receptors; Ki ± SEM (n = 3); read-out: A1 Ki (displacement of specific [3H]DPCPX binding)
# Experimental: Radioligand Binding Studies [^3H]DPCPX was purchased from Amersham. All compounds made were tested in radioligand binding assays to determine their affinities at the human adenosine A1 receptor. The affinities at the A1 receptors were determined on CHO cells expressing the human receptors, using [^3H]DPCPX as the radioligand according to a previously described method.^9
# Data Analysis Competition binding data were fit to a single-site binding model and plotted using the software package Prism (Graph Pad, San Diego, Calif., USA). The Cheng-Prusoff equation Ki=IC50/(1+[I]/Kd) was used to calculate Ki values, where Ki is the affinity constant for the competing ligand, [I] is the concentration of the free radioligand, and Kd is the affinity constant for the radioligand.
row,Compound,Ki
1,"O=C(Nc1cc(-c2ccccc2)nc(-c2ccccc2)n1)C1CCCC1 [Compound 24, Cyclopentanecarboxylic acid (2,6-diphenyl-pyrimidin-4-yl)-amide]",2.14 ± 0.07 nM
2,"CCC(CC)C(=O)Nc1cc(-c2ccccc2)nc(-c2ccccc2)n1 [Compound 19, N-(2,6-Diphenyl-pyrimidin-4-yl)-2-ethyl-butyramide]",6.35 ± 0.4 nM
3,"CC(C)CC(=O)Nc1cc(-c2ccccc2)nc(-c2ccccc2)n1 [Compound 18, N-(2,6-Diphenyl-pyrimidin-4-yl)-3-methyl-butyramide]",14.8 ± 2.7 nM
4,"CC(C)(C)CC(=O)Nc1cc(-c2ccccc2)nc(-c2ccccc2)n1 [Compound 22, N-(2,6-Diphenyl-pyrimidin-4-yl)-3,3-dimethyl-butyramide]",8.75 ± 4.1 nM
5,"CCC(C)C(=O)Nc1cc(-c2ccccc2)nc(-c2ccccc2)n1 (stereo not drawn) [Compound 20, N-(2,6-Diphenyl-pyrimidin-4-yl)-2-methyl-butyramide]",2.22 ± 1.1 nM
6,"CC(=O)Nc1cc(-c2ccccc2)nc(-c2ccccc2)n1 [Compound 14, N-(2,6-Diphenyl-pyrimidin-4-yl)-acetamide]",37.5 ± 8.1 nM
7,"O=C(Nc1cc(-c2ccccc2)nc(-c2ccccc2)n1)C1CCC1 [Compound 23, Cyclobutanecarboxylic acid (2,6-diphenyl-pyrimidin-4-yl)-amide]",6.49 ± 2.2 nM
8,"CCCC(=O)Nc1cc(-c2ccccc2)nc(-c2ccccc2)n1 [Compound 16, N-(2,6-Diphenyl-pyrimidin-4-yl)-butyramide]",17.6 ± 5.3 nM
9,"CCC(=O)Nc1cc(-c2ccccc2)nc(-c2ccccc2)n1 [Compound 15, N-(2,6-Diphenyl-pyrimidin-4-yl)-propionamide]",9.5 ± 4.6 nM
10,"O=C(Nc1cc(-c2ccccc2)nc(-c2ccccc2)n1)C1CCCCC1 [Compound 25, Cyclohexanecarboxylic acid (2,6-diphenyl-pyrimidin-4-yl)-amide]",15.5 ± 8.4 nM
11,"O=C(Nc1cc(-c2ccccc2)nc(-c2ccccc2)n1)c1ccccc1 [Compound 13, N-(2,6-Diphenyl-pyrimidin-4-yl)-benzamide]",671 ± 113 nM
12,"CC(C)(C)C(=O)Nc1cc(-c2ccccc2)nc(-c2ccccc2)n1 [Compound 21, N-(2,6-Diphenyl-pyrimidin-4-yl)-2,2-dimethyl-propionamide]",27.7 ± 6.2 nM
